Marks after values point to notes of the source that are not given here.
What was measured:
[1] = ABTS•+ radical cation decolorization assay; conditions: 16 min reaction
Method: The experiments were carried out using a slightly modified 2,2’-azinobis (3-ethylbenzothiazoline-6-sulfonic acid) diammonium salt (ABTS, Sigma-Aldrich Chemie, Steinheim, Germany) decolorization assay. Stock solution of ABTS (2 mM) was prepared by dissolving in 50 mL of phosphate buffered saline (PBS) obtained by dissolving 0.27 g of KH2PO4 (Jansen Chimica, Beerse, Belgium), 1.42 g of Na2HPO4, 8.18 g of NaCl, and 0.15 g of KCl (Merck, Darmstadt, Germany) in 1 L of distilled water. The pH was adjusted to 7.4 using NaOH solution. The ABTS^•+ was produced by reacting 50 mL of ABTS stock solution with 200 μL of K2S2O8 solution. The ABTS^•+ solution was diluted with PBS before measurements to obtain the absorbance of 0.800 ± 0.030 at 734 nm. 5,8-DHC was dissolved in PBS at the concentrations of 0.0025, 0.005, 0.01, 0.025 and 0.05% before the reaction. A 3 mL aliquot of ABTS^•+ solution was mixed with 30 μL of 5,8-DHC solution in the 1 cm path length quartz cuvette. The absorbance was read at ambient temperature after 16 min. PBS solution was used as a blank. All determinations were carried out in triplicate. Radical scavenging capacity was expressed as in DPPH^• scavenging assay.

[2] = Total phenolic compounds (TPC), Folin-Ciocalteu method
Method: The content of TPC was determined by the Folin–Ciocalteu method. Calibration curve was prepared by using 1 mL reference gallic acid solutions in ethanol (0.025, 0.075, 0.100, 0.175 and 0.350 mg/mL), which were mixed with 5 mL of a standard Folin-Ciocalteu reagent and diluted with distilled water (1:10) and 4 mL of 7.5% sodium carbonate solution in distilled water. The absorption was read after 30 min at 765 nm. The concentration of TPC was expressed in mg of gallic acid equivalents (GAE) per 1 g. The TPC was calculated by the following formula: C = c × V/m (2) where C is the concentration of gallic acid, determined form the calibration curve (mg/mL); V is the volume of 5,8-DHC solution (100 mL); m is the weight of 5,8-DHC (g).

human lymphocytes [3] = test: Chromosome aberrations in human lymphocyte cultures in vitro; type: cell-based; conditions: for CA per 100 cells (±S.E.M.): 24 h treatment, pooled two donors
Method: (§1) Blood samples were taken from two healthy female volunteers (donor A) and (donor B). Whole peripheral blood was grown in HEPES-buffered RPMI 1640 medium supplemented with 12% heat-inactivated newborn calf serum, 7.8 μg/mL phytohemagglutinin P, 50 μg/mL gentamycin, 10 μg/mL 5-bromo-2'-deoxyuridine. All reagents used for the cell culture were purchased from Sigma-Aldrich Chemical Co. (St. Louis, MO, USA). Cell cultures were incubated at 37 °C for 72 h. Treatment with test compounds was carried out 48 h after culture initiation and lasted for the period of 24 h. Dose range of 5,8-DHC (10 to 40 µg/mL) was based on pilot experiments (data not shown). As whole blood cultures display many properties common with the liver microsomal cytochrome P450 system, no external metabolising enzymes were added. 5,8-DHC was dissolved in ethanol and then diluted with RPMI 1640 medium to the desired concentration. Ethanol in a final concentration of 7.5µL/mL was used as a solvent control. […] Working solutions were made just before treatment. Two parallel cultures were used for each concentration of the compound tested. Two cultures were left untreated and served as a blank control. Methyl methanesulfonate (MMS) in a final concentration of 0.02 μL/mL was used as a positive control. The cultures were exposed to colchicine at a final concentration of 0.6 μg/mL for the last 3 h of incubation. The cells were harvested, hypotonically swollen in 0.075 M KCl and fixed in methanol: acetic acid (3:1). Air-dried slides were differentially stained by fluorescence plus Giemsa technique as has been described previously. Briefly, the slides were stained for 10 min. with 10 μg/mL of Hoechst 33258 dye (dissolved in 0.07 M Soerensen’s buffer, pH 6.8). Then the slides were rinsed, mounted with citrate buffer (pH 8.5), covered with cover slips and exposed to UV light (400 W mercury lamp at a distance of 15 cm) for 6–7 min. Slides were then rinsed and stained for 3–4 min. with 5% Giemsa. Cytogenetic analysis was performed on coded slides. No less than 100 first-mitotic division metaphases per culture were analysed for CAs, and no less than 50 second-division metaphases for SCEs.

human lymphocytes [4] = test: Sister chromatid exchanges and replication index in human lymphocyte cultures in vitro; type: cell-based
Method: as §1
Cell replicative kinetics were determined by means of a replicative index (RI = [M1 + 2M2 + 3M3]/N, where M1, M2, M3 are the numbers of cells that had undergone one, two or three cycles of replication, and N is a total number of cells scored). 300 cells were scored to determine RI

[5] = Signs of systemic toxicity and mortality in treated rats

## O=c1ccc2c(O)ccc(O)c2o1 [5,8-DHC, 5,8-Dihydroxycoumarin]
[1]
  IC50 in ABTS•+ reaction: 0.028%
[2]
  content of total phenols (TPC): 581.0 ± 0.0 mg gallic acid equivalents (GAE) in 1 g
Human lymphocytes [3]; 10 µg/mL
  CA per 100 cells (±S.E.M.): 1.5 ± 0.9 per 100 cells
Human lymphocytes [3]; 15 µg/mL
  CA per 100 cells (±S.E.M.): 3.0 ± 1.2 per 100 cells
Human lymphocytes [3]; 20 µg/mL
  CA per 100 cells (±S.E.M.): 3.5 ± 1.3 per 100 cells
Human lymphocytes [3]; 25 µg/mL
  CA per 100 cells (±S.E.M.): 6.5 ± 1.7 per 100 cells
Human lymphocytes [3]; 30 µg/mL
  CA per 100 cells (±S.E.M.): 7.0 ± 1.8 per 100 cells
Human lymphocytes [3]; 35 µg/mL
  CA per 100 cells (±S.E.M.): 7.0 ± 1.8 per 100 cells
Human lymphocytes [3]; 40 µg/mL
  CA per 100 cells (±S.E.M.): 9.5 ± 2.1 ^b per 100 cells
Human lymphocytes [3]; highest concentration only
  concentration giving statistically significant increase of CAs: 40 µg/mL
Human lymphocytes [4]
  ratio of regression coefficients donor A / donor B: 2.6 times
Human lymphocytes [4]; Donor A, 10 µg/mL
  RI ± S.E.M: 2.70 ± 0.04
  SCE/ cell ± S.E.M.: 10.2 ± 0.5 SCE/cell
Human lymphocytes [4]; Donor A, 15 µg/mL
  RI ± S.E.M: 2.74 ± 0.31
  SCE/ cell ± S.E.M.: 12.3 ± 0.6 ^b SCE/cell
Human lymphocytes [4]; Donor A, 20 µg/mL
  RI ± S.E.M: 2.65 ± 0.04 ^b
  SCE/ cell ± S.E.M.: 12.7 ± 0.7 ^b SCE/cell
Human lymphocytes [4]; Donor A, 25 µg/mL
  RI ± S.E.M: 2.66 ± 0.04 ^b
  SCE/ cell ± S.E.M.: 13.6 ± 0.6 ^b SCE/cell
Human lymphocytes [4]; Donor A, 30 µg/mL
  RI ± S.E.M: 2.55 ± 0.05 ^b
  SCE/ cell ± S.E.M.: 13.9 ± 0.6 ^b SCE/cell
Human lymphocytes [4]; Donor A, 35 µg/mL
  RI ± S.E.M: 2.51 ± 0.05 ^b
  SCE/ cell ± S.E.M.: 15.0 ± 0.8 ^b SCE/cell
Human lymphocytes [4]; Donor A, 40 µg/mL
  RI ± S.E.M: 2.62 ± 0.04 ^b
  SCE/ cell ± S.E.M.: 19.7 ± 1.5 ^b SCE/cell
Human lymphocytes [4]; Donor B, 10 µg/mL
  RI ± S.E.M: 2.22 ± 0.05 ^b
  SCE/ cell ± S.E.M.: 10.1 ± 0.5 SCE/cell
Human lymphocytes [4]; Donor B, 15 µg/mL
  RI ± S.E.M: 2.35 ± 0.05
  SCE/ cell ± S.E.M.: 10.6 ± 0.5 SCE/cell
Human lymphocytes [4]; Donor B, 20 µg/mL
  RI ± S.E.M: 2.49 ± 0.05
  SCE/ cell ± S.E.M.: 10.3 ± 0.4 SCE/cell
Human lymphocytes [4]; Donor B, 25 µg/mL
  RI ± S.E.M: 2.31 ± 0.05 ^b
  SCE/ cell ± S.E.M.: 9.9 ± 0.5 SCE/cell
Human lymphocytes [4]; Donor B, 30 µg/mL
  RI ± S.E.M: 2.31 ± 0.06 ^b
  SCE/ cell ± S.E.M.: 11.8 ± 0.5 ^b SCE/cell
Human lymphocytes [4]; Donor B, 35 µg/mL
  RI ± S.E.M: 2.17 ± 0.06 ^b
  SCE/ cell ± S.E.M.: 11.5 ± 0.6 ^b SCE/cell
Human lymphocytes [4]; Donor B, 40 µg/mL
  RI ± S.E.M: 2.07 ± 0.06 ^b
  SCE/ cell ± S.E.M.: 13.3 ± 0.6 ^b SCE/cell
Human lymphocytes [4]; donor A
  dose giving statistically significant increase in the frequency of SCEs: 15 µg/mL
  regression coefficient of SCE dose-response relationship: 1.15
Human lymphocytes [4]; donor B
  dose giving statistically significant increase in the frequency of SCEs: ≥ 30 µg/mL
  regression coefficient of SCE dose-response relationship: 0.44
Human lymphocytes [4]; lymphocytes of both donors
  concentration consistently inhibiting cell replicative kinetics: higher than 25 μg/mL
[5]; 20 mg/kg b.w., at 2–3 h after dose administration
  signs of systemic toxicity: sluggishness was observed in all rats
[5]; i.p. injection 100 mg/kg
  time to death after administration: 3 to 4 h
  toxicity and mortality: sluggishness and death of all treated animals
[5]; repeated treatment with 10 mg/kg b.w., since second dose administration
  signs of systemic toxicity: sluggishness

From paper PMC6269819, “Evaluation of the Biological Activity of Naturally Occurring 5,8-Dihydroxycoumarin” (Molecules, 2013)
